Type in all cases: cell-based
In experiment [1] the test system is E. coli TK-3. Put plainly: Antibacterial activity (MIC), E. coli TK-3. As to conditions: Escherichia coli. From the text:
(§1) The amount of the inoculated bacteria was 10^4 cells/plate (10^6 cells/ml).

The subject of experiment [2] is Kl. pneumoniae Y-50. Briefly: Antibacterial activity (MIC), Kl. pneumoniae Y-50. As to conditions: Klebsiella pneumoniae, Y50; Heart Infusion agar, 37° C., 20 hours, 10^6 cells/ml.
From the text: as §1

For experiment [3], the system named is Kl. pneumoniae Y-4. Briefly: Antibacterial activity (MIC), Kl. pneumoniae Y-4. As to conditions: Klebsiella pneumoniae, Y4; penicillinase-producing strain; Heart Infusion agar, 37° C., 20 hours, 10^6 cells/ml.
From the text: as §1

Experiment [4] deals with Pro. mirabilis T-111. Briefly: Antibacterial activity (MIC), Pro. mirabilis T-111. As to conditions: Proteus mirabilis.
From the text: as §1

Experiment [5] deals with Ser. marcescens IID620. Put plainly: Antibacterial activity (MIC), Ser. marcescens IID620. As to conditions: Serratia marcescens.
From the text: as §1

Experiment [6] concerns Kl. pneumoniae Y-41. Briefly: Antibacterial activity (MIC), Kl. pneumoniae Y-41. Particulars: Klebsiella pneumoniae, Y41; Heart Infusion agar, 37° C., 20 hours, 10^6 cells/ml.
From the text: as §1

In experiment [7] the test system is Cit. freundii N-7. Put plainly: Antibacterial activity (MIC), Cit. freundii N-7. Particulars: Citrobacter freundii.
From the text: as §1

The test system of experiment [8] is E. coli NIHJ. Briefly: Antibacterial activity (MIC), E. coli NIHJ. Particulars: Escherichia coli; Heart Infusion agar, 37° C., 20 hours, 10^4 cells/plate (10^6 cells/ml).
From the text: as §1

The subject of experiment [9] is Pro. vulgaris GN76. Put plainly: Antibacterial activity (MIC), Pro. vulgaris GN76. Particulars: Proteus vulgaris, cephalosporinase-producing strain, Heart Infusion agar, 37° C., 20 hours, 10^6 cells/ml.
From the text: as §1

For experiment [10], the system named is Pro. morganii T-216. Put plainly: Antibacterial activity (MIC), Pro. morganii T-216. Particulars: Morganella morganii, T216; Heart Infusion agar, 37° C., 20 hours, 10^6 cells/ml.
From the text: as §1

The subject of experiment [11] is Ser. marcescens W-134. Briefly: Antibacterial activity (MIC), Ser. marcescens W-134. As to conditions: Serratia marcescens.
From the text: as §1

Experiment [12] has as its system Ps. aeruginosa GN918. Put plainly: Antibacterial activity (MIC), Ps. aeruginosa GN918. Particulars: Pseudomonas aeruginosa, cephalosporinase-producing strain, Heart Infusion agar, 37° C., 20 hours, 10^6 cells/ml.
From the text: as §1

Setting [13] is: TK3, penicillinase-producing strain, Heart Infusion agar, 37° C., 20 hours, 10^6 cells/ml, read-out: MIC.
Where [14] appears, read: T111, Heart Infusion agar, 37° C., 20 hours, 10^6 cells/ml, read-out: MIC.
Setting [15] is: IID620, Heart Infusion agar, 37° C., 20 hours, 10^6 cells/ml, read-out: MIC.
The mark [16] stands for this setting: N7, Heart Infusion agar, 37° C., 20 hours, 10^6 cells/ml, read-out: MIC.
Setting [17] is: W134, Heart Infusion agar, 37° C., 20 hours, 10^6 cells/ml, read-out: MIC.

Values after ≈ are worked out from the molar mass of the structure shown. Where a name gives a salt, the structure may show the parent alone. Read-outs that look alike come from different tables or passages of the source. Some results are limits rather than exact numbers.

These results are taken from patent US4717767A, “7-amino-3-(pyrazinylmethyl) or (pyridazinylmethyl)-cephalosporins” (Toyama Chemical Co., Ltd., priority 1982, dated 1988).

By MIC is commonly meant the least concentration at which growth counts as inhibited.

As for `Nc1nc(/C(=N/OCC(=O)O)C(=O)NC2C(=O)N3C(C(=O)O)=C(Cn4cc[nH]c(=O)c4=O)CSC23)cs1` (stereo not drawn) [F, 7-[2-(2-aminothiazol-4-yl)-2-(syn)-carboxymethoxyiminoacetamido]-3-{[1-(2,3-dioxo-1,2,3,4-tetrahydropyrazinyl)]methyl}-Δ^3-cephem-4-carboxylic acid], the MIC in experiment [1] (setting [13]) is ≤ 0.1 µg/mL; in experiment [2], ≤ 0.1 µg/mL; in experiment [3], 0.2 µg/mL (≈ 0.363 µM); in [4] (setting [14]), ≤ 0.1 µg/mL; in [5] (setting [15]), ≤ 0.1 µg/mL; in experiment [6], 0.39 µg/mL (≈ 0.707 µM). Further, the MIC is 0.78 µg/mL (≈ 1.41 µM) in experiment [7] (setting [16]); ≤ 0.1 µg/mL in experiment [8]; ≤ 0.1 µg/mL in experiment [9]; ≤ 0.1 µg/mL in experiment [10]; ≤ 0.1 µg/mL in experiment [11] (W134, 20 h).
`CO/N=C(\C(=O)NC1C(=O)N2C(C(=O)O)=C(Cn3cc[nH]c(=O)c3=O)CSC12)c1csc(N)n1` (stereo not drawn) [A, trifluoroacetic acid salt of 7-[2-(2-aminothiazol-4-yl)-2-(syn)-methoxyiminoacetamido]-3-{[1-(2,3-dioxo-1,2,3,4-tetrahydropyrazinyl)]methyl}-Δ^3-cephem-4-carboxylic acid]: the MIC in experiment [1] (setting [13]), in [2], in experiment [3], in experiment [4] (setting [14]), in experiment [5] (setting [15]) and in [6] was ≤ 0.1 µg/mL in each case. For the same molecule, the MIC in experiment [7] (setting [16]) was 0.39 µg/mL; in experiment [8] it was ≤ 0.1 µg/mL; in [9], ≤ 0.1 µg/mL; in experiment [10], ≤ 0.1 µg/mL; in experiment [12] it was 12.5 µg/mL; in experiment [11] (setting [17]), ≤ 0.1 µg/mL.
Turning to `Cc1ccc(=O)n(CC2=C(C(=O)O)N3C(=O)C(NC(=O)/C(=N\OCC(=O)O)c4csc(N)n4)C3SC2)n1` (centres unmarked) [N], the MIC in experiment [1] (setting [13]) was 0.2 µg/mL (≈ 0.364 µM); in experiment [2], 0.39 µg/mL (≈ 0.71 µM); in [4] (setting [14]) it was ≤ 0.1 µg/mL; in experiment [5] (setting [15]) it was ≤ 0.1 µg/mL; in experiment [7] (N7, 20 h), 0.78 µg/mL (≈ 1.42 µM); in [8], ≤ 0.1 µg/mL. Further, the MIC in [9], in experiment [10] and in experiment [11] (setting [17]) was ≤ 0.1 µg/mL throughout.
As for `CO/N=C(\C(=O)NC1C(=O)N2C(C(=O)O)=C(Cn3ccn(N(C)C)c(=O)c3=O)CSC12)c1csc(N)n1` (stereo not drawn) [E, trifluoroacetic acid salt of 7-[2-(2-aminothiazol-4-yl)-2-(syn)-methoxyiminoacetamido]-3-{[1-(4-dimethylamino-2,3-dioxo-1,2,3,4-tetrahydropyrazinyl)]-methyl}-Δ^3-cephem-4-carboxylic acid], the MIC in experiment [1] (setting [13]), in experiment [2], in experiment [3], in [4] (setting [14]), in experiment [5] (setting [15]) and in [6] was ≤ 0.1 µg/mL each time. The MIC in experiment [7] (setting [16]) is 0.78 µg/mL; in [8], ≤ 0.1 µg/mL; in [9], 1.56 µg/mL; in [10], ≤ 0.1 µg/mL; in experiment [11] (setting [17]), ≤ 0.1 µg/mL.
For `Cn1ccn(CC2=C(C(=O)O)N3C(=O)C(NC(=O)/C(=N\OCC(=O)O)c4csc(N)n4)C3SC2)c(=O)c1=O` (centres unmarked) [G], the MIC in experiment [1] (setting [13]) is 0.2 µg/mL (≈ 0.354 µM); in experiment [2], 0.2 µg/mL (≈ 0.354 µM); in experiment [3] it was 0.2 µg/mL (≈ 0.354 µM); in experiment [4] (setting [14]), ≤ 0.1 µg/mL; in experiment [5] (setting [15]), ≤ 0.1 µg/mL; in [6], ≤ 0.1 µg/mL. Also, the MIC was 1.56 µg/mL (≈ 2.76 µM) in experiment [7] (setting [16]); ≤ 0.1 µg/mL in [8]; ≤ 0.1 µg/mL in [9]; ≤ 0.1 µg/mL in [10]; ≤ 0.1 µg/mL in [11] (setting [17]).
For `CO/N=C(\C(=O)NC1C(=O)N2C(C(=O)O)=C(Cn3ccn(C(C)C)c(=O)c3=O)CSC12)c1csc(N)n1` (stereo not drawn) [D, trifluoroacetic acid salt of 7-[2-(2-aminothiazol-4-yl)-(syn)-methoxyiminoacetamido]-3-{[1-(4-isopropyl-2,3-dioxo-1,2,3,4-tetrahydropyrazinyl)]methyl}-Δ^3-cephem-4-carboxylic acid], the MIC in experiment [1] (setting [13]) is ≤ 0.1 µg/mL; in experiment [2], ≤ 0.1 µg/mL; in [3], 0.39 µg/mL; in experiment [4] (T111, 20 h), 0.2 µg/mL; in [5] (setting [15]) it was ≤ 0.1 µg/mL; in [6] it was ≤ 0.1 µg/mL. Besides, the MIC in experiment [7] (setting [16]) was 1.56 µg/mL; in experiment [8] it was ≤ 0.1 µg/mL; in experiment [9], 0.39 µg/mL; in experiment [10], ≤ 0.1 µg/mL; in experiment [11] (setting [17]), ≤ 0.1 µg/mL.
`CO/N=C(\C(=O)NC1C(=O)N2C(C(=O)O)=C(Cn3nc(C)ccc3=O)CSC12)c1csc(N)n1` (stereo not drawn) [M, trifluoroacetic acid salt of 7-[2-(2aminothiazol-4-yl)-2-(syn)-methoxyiminoacetamido]-3-{[1-(3-methyl-6-oxo-1,6-dihydropyridazinyl)]methyl}-Δ^3-cephem-4-carboxylic acid]: the MIC was 0.2 µg/mL in [1] (setting [13]); 0.2 µg/mL in [2]; 0.2 µg/mL in experiment [4] (setting [14]); 0.2 µg/mL in [5] (setting [15]); 0.78 µg/mL in [7] (setting [16]); ≤ 0.1 µg/mL in experiment [8]. In addition, the MIC stood at 0.2 µg/mL in experiment [9]; 0.2 µg/mL in [10]; 0.78 µg/mL in experiment [11] (W134, 20 h).
On to `CO/N=C(\C(=O)NC1C(=O)N2C(C(=O)O)=C(Cn3[nH]c(=O)ccc3=O)CSC12)c1csc(N)n1` (stereo not drawn) [K, trifluoroacetic acid salt of 7-[2-(2-aminothiazol-4-yl)-2-(syn)-methoxyiminoacetamido]-3-{[1-(3,6-dioxo-1,2,3,6-tetrahydropyridazinyl)]methyl}-Δ^3-cephem-4-carboxylic acid], for which the MIC was 0.2 µg/mL in experiment [1] (TK3, 20 h); ≤ 0.1 µg/mL in experiment [2]; ≤ 0.1 µg/mL in experiment [4] (setting [14]); ≤ 0.1 µg/mL in experiment [5] (setting [15]); 0.78 µg/mL in experiment [7] (N7, 20 h); ≤ 0.1 µg/mL in [8]. Besides, the MIC in experiment [9], in [10] and in experiment [11] (setting [17]) was ≤ 0.1 µg/mL in each case.
Regarding `Nc1nc(/C(=N/OCC(=O)O)C(=O)NC2C(=O)N3C(C(=O)O)=C(Cn4[nH]c(=O)ccc4=O)CSC23)cs1` (stereo not drawn) [L, formic acid salt of 7-[2-(2-aminothiazol-4-yl)-2-(syn)-carboxymethoxyiminoacetamido]-3-{[1-(3,6-dioxo-1,2,3,6-tetrahydropyridazinyl)]methyl}-Δ^3-cephem-4-carboxylic acid], the MIC is 0.78 µg/mL in [1] (setting [13]); 0.78 µg/mL in experiment [2]; ≤ 0.1 µg/mL in experiment [4] (setting [14]); 1.56 µg/mL in [5] (IID620, 20 h); 3.13 µg/mL in experiment [7] (N7, 20 h); ≤ 0.1 µg/mL in experiment [8]. The MIC in [9] was ≤ 0.1 µg/mL; in experiment [10], ≤ 0.1 µg/mL; in experiment [11] (W134, 20 h), ≤ 0.1 µg/mL.
Consider `CO/N=C(\C(=O)NC1C(=O)N2C(C(=O)O)=C(Cn3ccncc3=O)CSC12)c1csc(N)n1` (stereo not drawn) [J, trifluoroacetic acid salt of 7-[2-(2-aminothiazol-4-yl)-2-(syn)-methoxyiminoacetamido]-3-{[1-(2-oxo-1,2-dihydropyrazinyl)]methyl}-Δ^3-cephem-4-carboxylic acid], for which the MIC in experiment [1] (setting [13]) was 0.2 µg/mL; in experiment [2], ≤ 0.1 µg/mL; in experiment [4] (setting [14]), 0.2 µg/mL; in experiment [5] (IID620, 20 h), ≤ 0.1 µg/mL; in experiment [7] (setting [16]) it was 0.78 µg/mL; in [8], ≤ 0.1 µg/mL. The minimal inhibitory concentration (MIC) in [9] is 0.78 µg/mL; in experiment [10], ≤ 0.1 µg/mL; in [11] (W134, 20 h), 0.39 µg/mL.
